Patent US11590164B2, “Topical antimicrobial formulations containing monovalent copper ions and systems for generating monovalent copper ions” (priority 2016, dated 2023)

What was measured:
[1] = tested on: E. coli; test: Syringes technique, anaerobic incubation of E. coli with copper ions (vitality / MIC); assay type: cell-based, Escherichia coli
Experimental: (§1) Syringes technique: Bacteria cells were incubated at room temperature under anaerobic conditions in LB Bruce growth substance syringes. To ensure anaerobic conditions, Argon gas (UHP) was bubbled through a sterile filter into a syringe filled with a growth substance. Cu^1+ was formed in situ, the process was started with de-aerating the aqueous solutions containing a mixture of CuSO4 as the source for Cu^2+ ions, metallic copper and Acetonitrile as a stabilizing ligand, prior to microorganisms insertion, according to the following reaction:
One must notice that each Cu^2+ results in two Cu^1+ ions.
(§2) Reference bacteria were incubated under the same condition in a growth substance containing: Metallic copper (4×2×0.1 cm), Acetonitrile, CuSO4 or AgNO3.
(§3) Bacteria count was measured at time intervals using a series of dilutions, and colonies count on LB Agar was incubated at 37° C.
The vitality of Escherichia coli, Staphylococcus aureus (bacteria) and Saccharomyces cerevisiae (yeast) was tested in anaerobic conditions using syringe technique and Petri dish technique.
The MIC of Cu^1+ and Cu^2+ was measured by using four syringes with decreasing concentration of the copper ions from 8 to 2 mM.
MIC of Cu^1+ found to be around 4 mM where the MIC of Cu^2+ was between 6 mM and 8 mM.

[2] = tested on: E. coli; test: Kinetics of bactericidal effect (time-kill curve), syringes technique; assay type: cell-based, Escherichia coli
Experimental: as §1, §2, §3
Because of the chemical similarity of copper and silver as well as their clinical use as antibacterial agents, their antibacterial effect over time was compared. The survival of test bacteria in each syringe was sampled in time intervals of 1, 20, 40 and 85 hours from inoculation. Time-kill curve was constructed by plotting the viable cell count of bacteria (Δ log 10 cfu/ml) over time (FIG. 1).

[3] = tested on: Escherichia coli strain MG1655; test: Disc diffusion antibiotic sensitivity test; assay type: cell-based; conditions: for Estimate of the sterile area beyond the disk: aerobic, 37° C., 24 h incubation, 6 mm disk
Experimental: 1. Introduction: • The antibacterial effect was measured by an agar disk diffusion method. Escherichia coli strain MG1655 was used as a model organism. Whatman's 6 mm disks were used. The incubation of Petri dishes (with disks) was done in aerobic conditions, at 37° C. After 24 h incubation, the radiuses of sterile zones on agar were measured.
2.1 Preparation of bacterial suspension • 100 μl of bacterial suspension (containing 10^4-10^5 bacterial cells per plate) was used for testing. Cells of E. coli MG1655 were grown overnight as a starter on LB (Luria broth) media at 37° C. with a shaker. After 12-18 hhours incubation, 100 μL suspension were added to 9.9 mL of fresh LB media. Bacterial cells designated for testing were grown in fresh LB at 37° C. with a shaker for 2-3 h to final OD (600 nm) 0.2-0.4. This cell suspension was diluted by a factor of 100 using 0.9% NaCl, and 100 μL of the diluted suspension was distributed on agar surface before adding a disk.
2.2 Preparation of Petri dishes • LB agar was prepared according to a standard procedure, autoclaved and stored afterwards up to 3 h at 55° C. The needed substances (like ascorbic acid) were added into agar before pouring into dishes. 15 ml agar was added to each 90 mm Petri dish. Dishes were dried for at least 1 h in a biosafety cabinet by sterile air flow.
2.3 Formulation application • To the preliminary dried dishes (a described in 2.2) a freshly prepared bacterial culture was added (as described in 2.1). Immediately after absorption of the suspension into the agar, a disk was placed at the center of the dish. In case where metallic copper was tested, it was placed first in the form of a small circular wire at the dish center and pressed into the agar, and covered by a disk afterwards. 10 μl of a Cu^2+ solution was placed on the disk.
2.4 Measurement of the sterile zone size • All dishes after 24 h incubation (as described in 2.1) were photographed and the images are analyzed. The absolute size of the sterile zones was estimated in comparison with the disk size (6 mm).
The results were presented as sterile area in mm^2 (FIG. 5 and Table 2) or as radiuses in mm (FIGS. 7-10) of the sterile zones on agar.

[4] = tested on: E. coli MG 1655; test: Petri dish technique, LB agar with ascorbic acid and CuSO4 covered by oil; assay type: cell-based, Escherichia coli; conditions: for Vitality of E. coli MG 1655: 24 h
Experimental: As control groups, bacteria were incubated under the same conditions without ascorbic acid, or without CuSO4. In this series of experiments ascorbic acid acted as the reducing agent according to the following reaction: 2Cu^2++ascorbic acid→2Cu^++dehydro ascorbic acid (2) The viability of bacteria was detected by the presence or absence of colonies.
The experiment was repeated using a different reducing agent (ascorbic acid instead of metal copper with acetonitrile) and different technique of growing bacteria on Petri dishes with LB agar. The ascorbic acid embedded in the agar reduces copper as was shown in Equation 2.

[5] = tested on: S. aureus; test: Petri dish technique, LB agar with ascorbic acid; assay type: cell-based, Staphylococcus aureus; conditions: 24 h
Experimental: Petri dish technique: Bacteria were incubated at 37° C. in Petri dish with LB Agar containing 20 mM ascorbic acid and 0.05-3.5 mM CuSO4 covered by oil, to prevent air oxygen penetration. As control groups, bacteria were incubated under the same conditions without ascorbic acid, or without CuSO4. In this series of experiments ascorbic acid acted as the reducing agent according to the following reaction: 2Cu^2++ascorbic acid→2Cu^++dehydro ascorbic acid (2) The viability of bacteria was detected by the presence or absence of colonies.
The MIC of Cu^1+ is measured by using Petri dishes with LB agar. The ascorbic acid embedded in the agar reduces copper as was shown in Equation 2.

[6] = tested on: Staphylococcus aureus; test: Growth kinetics in anaerobic conditions, syringe technique; assay type: cell-based
Experimental: as §1, §2, §3
When comparing with FIG. 2 it seems that the difference between the effect of Cu^1+ and Cu^2+ is more pronounced in gram (+) bacteria than in gram(−).

[7] = tested on: Saccharomyces cerevisiae; test: Viable cell count over time, syringes technique; assay type: cell-based
[8] = 4 mM ion, 24 h incubation, 0.5% (v/v) acetonitrile

`CC#N` [acetonitrile] was tested, and the “minimal effective concentration as stabilizing ligand” value ([1]; preliminary tests, equals 0.5% V/V) was 0.1 M.

In the case of `[Cu+]` [Cu^1+], the “presence or absence of E. coli colonies” value ([1]; 2 mM ion, 24 h incubation, 0.5% (v/v) acetonitrile) is reported as “++ (a fully covered plate, estimated as 2×10^7 cfu/ml)”, the “number of colonies on the plate” value [1, 8] is reported as 107 colonies and the “presence or absence of E. coli colonies” value [1, 8] is reported as “++ (a fully covered plate, estimated as 2×10^7 cfu/ml)”. For the same molecule, the “presence or absence of E. coli colonies” value ([1]; 6 mM ion, 24 h incubation, 0.5% (v/v) acetonitrile) was “−”, the “presence or absence of E. coli colonies” value ([1]; 6 mM ion, 24 h incubation, 0.5% (v/v) acetonitrile, listed as Cu^+2) was “+ (partially covered plate but still uncountable, estimated as 1×10^4 cfu/ml)” and the “presence or absence of E. coli colonies” value ([1]; 8 mM ion, 24 h incubation, 0.5% (v/v) acetonitrile) was “−”. For the same molecule, the MIC ([1]; 24 h incubation, 0.5% (v/v) acetonitrile, syringes) was “around 4 mM”, the “antibacterial potency compared with 8 mM and 16 mM Ag^+” value ([2]; 8 mM, 1 h incubation) was “more potent antibacterial agent” and the viable bacteria cells ([2]; 20 hours after inoculation) was “no viable bacteria cell was found at all”. The “reduction of the initial bacteria inoculums” value ([2]; after 1 h of incubation, anaerobic) was 7 log cfu/ml, the “live bacteria remaining in the syringe” value ([2]; after 85 hours) was 1 log cfu/ml and the “Estimate of the sterile area beyond the disk” value (“Estimate” for short) [3] was 359.3 mm^2. The “Estimate” value ([3]; listed as Cu^2+) was 25.9 mm^2, the “Estimate” value ([3]; listed as Cu^+2) was 25.9 mm^2 and the “improvement in the biocidal effect compared with Ag^1+ and Cu^2+” value ([3]; disk diffusion method) was “more than 10 times”. For the same molecule, the “bactericidal effect of reduced copper ions relative to Cu^2+” value ([4]; 24 h after incubation) was “eight times higher”, the S. aureus vitality ([5]; 0.05 mM with ascorbic acid 20 mM) was “++ (a fully covered plate, estimated as 2×10^7 cfu/ml)” and the “S. aureus vitality, number of colonies” value ([5]; 0.1 mM with ascorbic acid 20 mM) was 45. The S. aureus vitality ([5]; 0.3 mM with ascorbic acid 20 mM) was “−”, the bacteriostatic effect [6] was “very little bacteriostatic effect” and the “incubation time to depletion of bacterial count” value [6] was ≤ 1 h. For the same molecule, the “susceptibility of the yeast compared with the bacteria studied” value [7] was “more susceptible”.

In the case of `O=C1O[C@H]([C@@H](O)CO)C(O)=C1O` [Ascorbic acid, ascorbic acid, reference compound], the “Vitality of E. coli MG 1655” value ([4]; Ascorbic acid 20 mM, CuSO4 0 mM) is reported as “++ (a fully covered plate, estimated as 2×10^7 cfu/ml)”.

“copper(II) gluconate [copper (II) gluconate]” was tested, and the “minimal recommended concentration of copper (II) gluconate” value ([3]; in emulsifying base ointment with ascorbyl palmitate and 2% copper powder) was 1.25 % w/w.

With `O=S(=O)([O-])[O-].[Cu+2]` [CuSO4] the “Vitality of E. coli MG 1655” value ([4]; Ascorbic acid 0 mM, CuSO4 3.0 mM) was “++ (a fully covered plate, estimated as 2×10^7 cfu/ml)”, the “Vitality of E. coli MG 1655” value ([4]; Ascorbic acid 0 mM, CuSO4 4.0 mM) was “−” and the “Vitality of E. coli MG 1655” value ([4]; Ascorbic acid 20 mM, CuSO4 0.01 mM) was “++ (a fully covered plate, estimated as 2×10^7 cfu/ml)”. For the same molecule, the “Vitality of E. coli MG 1655” value ([4]; Ascorbic acid 20 mM, CuSO4 0.05 mM) was “−”.

With `[Ag+]` [Ag^1+, reference compound] the viable cells ([2]; after 85 hours) was “no viable cells were found” and the “Estimate” value [3] was 27.1 mm^2.
